Structures can show the parent of a compound that is named as a salt.
What was measured:
Type in all cases: in vivo
rat model of DKA [1] = test: Plasma ET-1 level (Enzyme Immunometric Assay) in diabetic ketoacidosis rats
Method: In order to analyze the change in plasma ET-1 level during the treatment, blood samples were withdrawn through right femoral artery of the rats before and at the end of experiment and were collected into chilled EDTA tubes (1 mg/mL blood) containing aprotinin (500 KIU/mL of blood). The blood samples were centrifuged at 1,600×g for 15 minutes at 0° C. and plasma separated was stored at −70° C. until analyzed. ET-1 level was estimated using Assay's Design's Endothelin-1 Enzyme Immunometric Assay Kit (Nowicki et al., 2005; Brondani et al., 2007). Briefly, plasma samples and standards were added to wells coated with a monoclonal antibody specific for ET-1. The plate then was washed after 24 hours of incubation, leaving only bound ET-1 on the plate. A solution of horseradish peroxidase (HRP) labeled monoclonal antibody to ET-1 then was added, which binds to the ET-1 captured on the plate. The plate was incubated for 30 min, then washed to remove excess HRP labeled antibody. A solution of 3,3′,5,5′-tetramethylbenzidine (TMB) substrate was added, which generates a blue color when catalyzed by the HRP. Hydrochloric acid (1N) was added to stop the substrate reaction, and the resulting yellow color was read at 450 nm using DTX 800 Multimode detector. The data was analyzed with Multimode Detection Software (Beckman Coulter, Inc., Fullerton, Calif.). The measured optical density is directly proportional to the concentration of ET-1 in either standards/plasma. Blood samples from all the groups were collected before the start and at end of the treatment.
(§1) Group 4: Diabetic saline/insulin treated (D-Saline+insulin treated): Rats were injected with streptozotocin in citrate buffer (150 mg/kg ip) to induce diabetes and ketoacidosis. On day three, rats were treated with 1.5 U/kg regular insulin (Humulin® R (Regular human insulin, rDNA origin). On day four, saline and insulin treatment was carried out. Rats were infused via cannulated femoral vein saline, 0.9% NaCl at 80 mL/kg/hr and 1.5 U/kg/hr regular insulin for one hour. During the next two through four hours, rats were infused with saline, 0.9% NaCl at 40 mL/kg/hr and 1.5 U/kg/hr regular insulin (Yuen et al., 2008).
(§2) Group 5: Diabetic BMS-182874/saline/insulin treated (D-BMS+Saline+insulin treated): Rats were injected with streptozotocin in citrate buffer (150 mg/kg ip) to induce diabetes and ketoacidosis. On day three, rats were treated with 1.5 U/kg regular insulin. On day four, rats were administered a bolus dose of selective ETA receptor antagonist, BMS-182874 (9 mg/kg), then saline and insulin treatment was carried out. Rats were infused via cannulated femoral vein saline, 0.9% NaCl at 80 mL/kg/hr and 1.5 U/kg/hr regular insulin for one hour. During the next two through four hours rats were infused with saline, 0.9% NaCl at 40 mL/kg/hr and 1.5 U/kg/hr regular insulin.
(§3) Group 6: Diabetic BQ123/saline/insulin treated (D-BQ+saline+insulin treated): Same as above for Group 5, except BQ123 (1 mg/kg body weight) is used as a substitute for BMS-182874 (9 mg/kg).
(§4) Data are presented as mean±SEM. The significance of differences was estimated by one-way analysis of variance (intra group comparison with respect to base line data) and two-way analysis of variance (inter group comparison with respect to corresponding time points from each groups) followed by application of the Dunnett's Multiple Comparisons and Bonferroni test respectively. A P value of less than 0.05 was considered to be significant. The statistical analysis was processed with GraphPad Prism software Version 5.00.

rat model of DKA [2] = test: Brain and lung water content in diabetic ketoacidosis rats; settings: end of treatment
Method: Water content in the lung and brain was determined to assess brain and pulmonary edema. Assessment of brain and lung water content was carried out as follows. At the end of treatment the animal was sacrificed and trachea was immediately tied, then the lungs were dissected out. The skull was opened and brain dissected out. Brain and lungs were rinsed with saline, and weighed (wet weight). The brain and lungs were kept for drying in an oven at a temperature of 60° C. for 72 hours, then weighed again (dry weight). The percent water content was calculated using the formula: [(wet weight−dry weight)/wet weight×100].
as §1, §2, §3, §4

rat model of DKA [3] = test: Arterial blood gases, electrolytes, lactate and hematocrit in diabetic ketoacidosis rats; settings: for arterial blood pH, Day 4 (pre-tx): instrument could not record pH below 6.80, mean±SEM
Excerpt: Arterial blood pH, pO2, pCO2, Na^+, K^+, lactate, and hematocrit were monitored prior to, at one hour, and at the end of treatment. Blood samples were drawn from the arterial cannula using blood gas sampling syringes (Innovative Medical Technologies, Inc. Leawood, Kans.) and analyzed using a GEM Premier 3000 unit (Instrument Laboratory, Lexington, Mass.). Blood samples were withdrawn from the femoral artery for baseline reading prior to start of treatment, after the first hour of treatment, and then at the end of the treatment (fifth hour of experiment).
as §1, §2, §3, §4

rat model of DKA [4] = test: Cardiovascular parameters (MAP, pulse pressure, heart rate) in diabetic ketoacidosis rats
Excerpt: Rats were anaesthetized with urethane (1.5 g/kg ip.) and prepared for the determination of hemodynamic parameters (Gulati et al., 1997a; Gulati et al., 1997b). The anesthetized rats were shaved and immobilized to prepare for cannulation. A 2-3 centimeter (cm) incision was made above the femoral vein and artery and the vessels were dissected and cleaned. The left femoral vein was cannulated (PE-50 tubing, Clay Adams, Parsipanny, N.J.) and secured for drug administration. An ultra-miniature pressure transducer SPR-320 (2F Polyurethane), with a single pressure sensor side mounted at the tip (Millar Instruments, Houston, Tex.) was inserted in the left femoral artery to acquire the hemodynamic signals. Pressure transducer was connected to bridge amplifier (ML221 Bridge Amp; AD Instruments, Mountain View, Calif., USA) with Viking connector (AEC-10C) and the signals were continuously acquired at a sampling rate of 1000 S^−1 using Millar PowerLab 16/30 data acquisition system (AD Instruments, Mountain View, Calif., USA). Mean arterial pressure (MAP), heart rate (HR), and pulse pressure (PP) were determined and analyzed with LabChart-5.00 software program (Millar Instruments). After the experiment was completed, the animals were euthanized with a high dose of urethane (3 gm/kg).
as §1, §2, §3, §4

[5] = day 4, BMS-182874+saline+insulin group
[6] = day 4, compared to diabetic untreated rats, result in words
[7] = saline+insulin, alone or after bolus BMS-182874 9 mg/kg or BQ123 1 mg/kg

With Cc1noc(NS(=O)(=O)c2cccc3c(N(C)C)cccc23)c1C [BMS-182874, (5-Dimethylamino)-N-(3,4-dimethyl-5-isoxazolyl)-1-naphthalene sulfonamide hydrochloride] the “plasma ET-1, Day 4 (pre tx)” value (rat model of DKA [1]; baseline before treatment, mean±SEM) was 11.93 ± 2.01 pg/mL, the “effect of treatment on plasma ET-1 level” value (rat model of DKA [1]; day 4, result in words (Table 4, FIG. 9)) was “did not significantly affect plasma ET-1 level” and the “plasma ET-1, Day 4 (end of tx)” value (rat model of DKA [1]; saline+insulin, alone or after bolus BMS-182874 9 mg/kg or BQ123 1 mg/kg, mean±SEM) was 20.40 ± 3.23 pg/mL. For the same molecule, the “effect on lung water content (pulmonary edema)” value (rat model of DKA [2]; FIG. 7, result in words) was “restored lung water content”, the “effect on brain water content (cerebral edema)” value (rat model of DKA [2]; FIG. 8, result in words) was “restored brain water content” and the “arterial blood pH, Day 4 (pre-tx)” value (rat model of DKA [3]; baseline, hydrochloride) was 6.82±0.02. For the same molecule, the “arterial blood pH, Day 4 (pre-tx)” value (rat model of DKA [3]; baseline, listed as BMS, hydrochloride) was 6.82 ± 0.02, the “arterial blood pCO2, Day 4 (pre-tx)” value (rat model of DKA [3]; baseline, mean±SEM) was 28.71 ± 2.08 mmHg and the “arterial blood pO2, Day 4 (pre-tx)” value (rat model of DKA [3]; baseline, mean±SEM) was 156.71 ± 7.11 mmHg. For the same molecule, the “blood K+ level, Day 4 (pre-tx)” value (rat model of DKA [3]; baseline, mean±SEM) was 4.21 ± 0.33 mmol/L, the “blood Na+ level, Day 4 (pre-tx)” value (rat model of DKA [3]; baseline, mean±SEM) was 135.71 ± 2.06 mmol/L and the “blood hematocrit (Hct), Day 4 (pre-tx)” value (rat model of DKA [3]; baseline, mean±SEM) was 45.71 ± 1.48%. The blood K+ levels, after treatment (to) (rat model of DKA [3]; [5]) was 2.75 ± 0.27 mM, the blood K+ levels, before treatment (from) (rat model of DKA [3]; [5]) was 4.21 ± 0.33 mM and the “effect of treatment on arterial blood pH (acidosis)” value (rat model of DKA [3]; day 4, antagonist given with saline+insulin, result in words) was “produced a significant improvement in arterial blood pH”. The “effect of treatment on blood K+ levels” value (rat model of DKA [3]; [6]) was “significantly reduced the change in blood K^+ levels”, the “effect of treatment on blood lactate levels” value (rat model of DKA [3]; [6]) was “significantly reduced the change in blood lactate levels” and the “effect of treatment on hematocrit” value (rat model of DKA [3]; [6]) was “significantly reduced the hematocrit”. The “arterial blood pCO2, Day 4 (1 hour of tx)” value (rat model of DKA [3]; [7]) was 30.57 ± 1.94 mmHg, the “arterial blood pCO2, Day 4 (end of tx)” value (rat model of DKA [3]; [7]) was 30.57 ± 2.23 mmHg and the “arterial blood pO2, Day 4 (1 hour of tx)” value (rat model of DKA [3]; [7]) was 135.57 ± 6.37 mmHg. For the same molecule, the “arterial blood pO2, Day 4 (end of tx)” value (rat model of DKA [3]; [7]) was 143.85 ± 6.59 mmHg, the “blood K+ level, Day 4 (1 hour tx)” value (rat model of DKA [3]; [7]) was 2.62 ± 0.29 mmol/L and the “blood K+ level, Day 4 (end of tx)” value (rat model of DKA [3]; [7]) was 2.75 ± 0.27 mmol/L. The “blood Na+ level, Day 4 (1 hour of tx)” value (rat model of DKA [3]; [7]) was 143.42 ± 1.84 mmol/L, the “blood Na+ level, Day 4 (end of tx)” value (rat model of DKA [3]; [7]) was 146.14 ± 1.14 mmol/L and the “blood hematocrit (Hct), Day 4 (1 hour of tx)” value (rat model of DKA [3]; [7]) was 33.28 ± 1.52 %. The “blood hematocrit (Hct), Day 4 (end of tx)” value (rat model of DKA [3]; [7]) was 29.28 ± 2.22 %, the “arterial blood pH, Day 4 (1 hour of tx)” value (rat model of DKA [3]; saline+insulin, alone or after bolus BMS-182874 9 mg/kg or BQ123 1 mg/kg, instrument floor 6.80) was 6.81 ± 0.01 and the “arterial blood pH, Day 4 (end of tx)” value (rat model of DKA [3]; saline+insulin, alone or after bolus BMS-182874 9 mg/kg or BQ123 1 mg/kg, instrument floor 6.80, hydrochloride) was 6.91±0.02. For the same molecule, the “arterial blood pH, Day 4 (end of tx)” value (rat model of DKA [3]; saline+insulin, alone or after bolus BMS-182874 9 mg/kg or BQ123 1 mg/kg, instrument floor 6.80, listed as BMS, hydrochloride) was 6.91 ± 0.02, the “effect on mean arterial pressure” value (rat model of DKA [4]; day 4, FIG. 3, antagonist given with saline+insulin, result in words) was “stabilized the arterial pressure” and the “effect on pulse pressure” value (rat model of DKA [4]; day 4, FIG. 4, antagonist given with saline+insulin, result in words) was “stabilized the pulse pressure”. For the same molecule, the “effect on heart rate” value (rat model of DKA [4]; day 4, FIG. 5, antagonist given with saline+insulin, result in words) was “did not produce any decrease in heart rate compared to baseline” and the “effect on insulin induced hypertension” value (rat model of DKA [4]; day 4, result in words) was “prevented development of insulin induced hypertension”.

Source: patent US8980874B2, “Method and composition for treating diabetic ketoacidosis” (Midwestern University, priority 2009, dated 2015)
